Results: publication PMC8360061, “Search for the Active Ingredients from a 2‐Aminothiazole DMSO Stock Solution with Antimalarial Activity” (Chemmedchem, 2021)

Assays:
[1] = molecular target: PK/LDH (pyruvate kinase and lactate dehydrogenase); test: PK/LDH auxiliary enzyme assay; assay type: biochemical
Description: (§1) Firstly, we performed a temperature‐dependent decomposition study of compound 1 at 10 mM concentration in DMSO at room temperature (RT), +4 °C and −20 °C (SI, Section 2.3). […] Besides visual inspection of the colour changes of the test sample (see Table 2), the decomposition was monitored by HRMS and NMR spectroscopy. […] Furthermore, all three samples were tested for their inhibitory activity against PfIspE after the incubation period. […] In the IspE assay, the activity of the target enzyme is coupled to the oxidation of NADH (which can be followed spectrophotometrically at 340 nm) via a cascade of the auxiliary enzymes pyruvate kinase and lactate dehydrogenase (PK/LDH).[10] […] Three samples of compound 1 were tested in PK/LDH assay (Table 2).
(§2) 1.1 General Procedure for Enzymatic Assay
(§3) The cloning, expression and purification of Plasmodium falciparum[1] and Escherichia coli[2,3] and their subsequent assays followed the previously reported procedures .[1] In some specified cases, the tested compound was dissolved in methanol or acetonitrile for the assay .
(§4) Due to the nature of the study, some decomposition samples w ere only tested once and thus, for some formal standard error, […]
(§5) For the final purified compounds, replicates were measured and standard deviation was calculated at least from two replicates. […]
(§6) 2.) Decomposition Study Procedure
(§7) All reagents and solvents were of commercial quality and used without further purification.
Low resolution mass analytics and purity controls were carried out using an Ultimate 3000-ISQ liquid-chromatography mass spectrometry (LCMS) system (Thermo Fisher Scientific, Dreieich, Germany) consisting of a Dionex UltiMate pump, an autosampler, DAD detector and an ESI quadrupole mass spectrometer. NMR spectra were recorded on a Bruker AV 500 or Ascend 700 (1H, 500 MHz or 700 MHz; 13C, 126 MHz or 175 MHz; 19F, 470 MHz) spectrometer. All spectra were measured in DMSO -d6, methanol-d4, acetone-d6 or acetonitrile-d3 to which reported

PfIspE = PfIspE (Plasmodium falciparum, UniProt Q8I470); test: PfIspE enzymatic assay (coupled to PK/LDH, NADH oxidation at 340 nm); assay type: biochemical
Description: as §1
Another approach to address this issue is to perform the IspE assay with one or several orthologues of PfIspE. […] The IspE assay setup was identical for both Pf and EcIspE orthologs except for the target enzyme used. One of the setup requirements was that the enzymatic activity of the auxiliary enzymes PK/LDH exceeded the activity of the target enzyme IspE not less than a factor of ten.[10] We investigated, if the inhibition of the auxiliary enzymes may substantially influence the IC50 values obtained from the coupled IspE assay.
as §2, §3, §4, §5, §6, §7

HEK293 = test: Cytotoxicity assay HEK293; assay type: cell-based; conditions: Homo sapiens, old sample before becoming aware of the decomposition, read-out: %-inh. HEK293
Description: as §4, §5
1.3 General Procedure for Cytotoxicity Assay
Cytotoxicity assays based on the human lung adenocarcinoma (A549), human embryonic kidney (Hek293) and human hepatocellular carcinoma (HepG2) cell lines were performed as described previously.[7] […]

[2] = 10 mM DMSO stock stored at +4 °C, measured after 3 months
[3] = 10 mM DMSO stock stored at RT, measured after 3 months
[4] = 10 mM stock in DMSO at RT, 7 days of incubation
[5] = 10 mM stock in DMSO at RT, 9 days of incubation
[6] = 10 mM stock in DMSO at RT, 12 days of incubation
[7] = 10 mM stock in DMSO at RT, 14 days of incubation
[8] = 10 mM stock in DMSO at RT, 16 days of incubation
[9] = analytical sample, DMSO at RT, 4 days of incubation, dissolved in methanol shortly before the assay
[10] = old decomposed sample, control run at the same time as the temperature study
[11] = fresh batch, freshly prepared stock solution

Sequence of PfIspE (Q8I470 entry or part of it): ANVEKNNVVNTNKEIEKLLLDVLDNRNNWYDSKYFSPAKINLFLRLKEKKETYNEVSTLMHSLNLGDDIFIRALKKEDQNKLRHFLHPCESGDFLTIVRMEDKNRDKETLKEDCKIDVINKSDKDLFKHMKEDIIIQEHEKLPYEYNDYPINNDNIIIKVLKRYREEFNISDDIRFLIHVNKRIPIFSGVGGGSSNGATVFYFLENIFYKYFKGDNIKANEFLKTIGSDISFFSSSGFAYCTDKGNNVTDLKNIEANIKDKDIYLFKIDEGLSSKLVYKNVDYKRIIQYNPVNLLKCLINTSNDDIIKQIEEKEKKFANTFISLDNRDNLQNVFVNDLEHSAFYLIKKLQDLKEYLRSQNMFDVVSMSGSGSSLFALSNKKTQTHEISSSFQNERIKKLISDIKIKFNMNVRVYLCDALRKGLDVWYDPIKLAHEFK

CCn1c(C)cc(-c2csc(Nc3ccccc3C(F)(F)F)n2)c1C [Compound 1]
IC50 [1, 2]: 45 ± 6 µM | IC50 [1, 3]: 34 ± 4 µM | IC50 [1, 4]: 48 ± 16 µM | IC50 [1, 5]: 57 ± 22 µM | IC50 [1, 6]: 2 ± 1 µM | IC50 [1, 7]: 50 ± 11 µM | IC50 [1, 8]: 86 ± 17 µM | IC50 [1, 9]: 95 ± 21 µM | IC50 [1, 10]: 40 ± 4 µM | IC50 (PfIspE; [2]): 16 ± 7 µM | IC50 (PfIspE; [3]): 12 ± 4 µM | IC50 (PfIspE; 10 mM DMSO stock stored at −20 °C, measured after 3 months): > 500 µM | IC50 (PfIspE; 10 mM stock in ACN at RT, 0 days of incubation): > 500 µM | IC50 (PfIspE; 10 mM stock in ACN at RT, 5 days of incubation): > 500 µM | IC50 (PfIspE; 10 mM stock in ACN at RT, 7 days of incubation): > 500 µM | IC50 (PfIspE; 10 mM stock in ACN at RT, 9 days of incubation): > 500 µM | IC50 (PfIspE; 10 mM stock in ACN at RT, 12 days of incubation): > 500 µM | IC50 (PfIspE; 10 mM stock in ACN at RT, 14 days of incubation): > 500 µM | IC50 (PfIspE; 10 mM stock in ACN at RT, 16 days of incubation): > 500 µM | IC50 (PfIspE; 10 mM stock in DMSO at RT, 0 days of incubation): > 500 µM | IC50 (PfIspE; 10 mM stock in DMSO at RT, 5 days of incubation): 19 ± 7 µM | IC50 (PfIspE; [4]): 24 ± 9 µM | IC50 (PfIspE; [5]): 10 ± 4 µM | IC50 (PfIspE; [6]): 1 ± 1 µM | IC50 (PfIspE; [7]): 10 ± 4 µM | IC50 (PfIspE; [8]): 11 ± 4 µM | IC50 (PfIspE; 10 mM stock in MeOH at RT, 0 days of incubation): > 500 µM | IC50 (PfIspE; 10 mM stock in MeOH at RT, 5 days of incubation): > 500 µM | IC50 (PfIspE; 10 mM stock in MeOH at RT, 7 days of incubation): > 500 µM | IC50 (PfIspE; 10 mM stock in MeOH at RT, 9 days of incubation): > 500 µM | IC50 (PfIspE; 10 mM stock in MeOH at RT, 12 days of incubation): > 500 µM | IC50 (PfIspE; 10 mM stock in MeOH at RT, 14 days of incubation): > 500 µM | IC50 (PfIspE; 10 mM stock in MeOH at RT, 16 days of incubation): > 500 µM | IC50 (PfIspE; analytical sample, DMSO at RT, 0 days of incubation, dissolved in methanol shortly before the assay): > 500 µM | IC50 (PfIspE; analytical sample, DMSO at RT, 1 day of incubation, dissolved in methanol shortly before the assay): > 500 µM | IC50 (PfIspE; analytical sample, DMSO at RT, 2 days of incubation, dissolved in methanol shortly before the assay): > 500 µM | IC50 (PfIspE; analytical sample, DMSO at RT, 3 days of incubation, dissolved in methanol shortly before the assay): 486 ± 20 µM | IC50 (PfIspE; [9]): 99 ± 23 µM | IC50 (PfIspE; fractions of second purification (DMSO, RT, five days), dissolved in ACN): > 1370 µM | IC50 (PfIspE; fractions of second purification (DMSO, RT, five days), dissolved in MeOH): > 1370 µM | IC50 (PfIspE; [11]): > 500 µM | PfIspE IC50 (PfIspE; [11]): no activity | IC50 (PfIspE; freshly dissolved compound, in methanol shortly before the assay (Table 4 footnote b)): > 500 µM | IC50 (PfIspE; old batch (decomposed DMSO stock)): 8 ± 2.8 µM | IC50 (PfIspE; [10]): 10 ± 3 µM | inhibition at 100 µM (HEK293): 28%
